Earlier results in patent publication US11478425B2, “Extended release compositions comprising pyridostigmine” (priority 2017, dated 2022).

CN(C)C(=O)Oc1ccc[n+](C)c1 [pyridostigmine]
bioavailability (NDA #020414): 10-20% | elimination half-life (oral): 3 to 5 h | time-to-maximum peak plasma concentration (oral): 1 to 2 h
